# Source: US20080300222A1, “Phosphoantigen Salts Of Organic Bases And Methods For Their Crystallization” (Innate Pharma, priority 2005, published 2008)
# Where a name gives a salt, the structure may show the parent alone.
# Columns and labels:
# [1] = Chemical stability on storage, evaluated by HPAEC analysis
# [2] = Thermal stability by DSC and TG/DSC analysis
# Protocol: DSC analyses were carried out by using a SETARAM 141 Differential Scanning Calorimeter (SETARAM, 69300 Caluire, France). No purge gas was used. The reference material was an empty aluminum pan without cap. The samples were weighed in open aluminum pans, then placed in the analyzer. The analyses were performed within various temperature ranges using a 2°.min^−1 heating rate. SETARAM ACQUISITION Module software (v. 1.4) was used as control software and data processing was performed by using the SETARAM DATA PROCESSING Module software (v. 1.39).
# TG/DSC measurements were carried out by using a NETZSCH STA 449C Jupiter Thermogravimetric Analyzer (NETZSCH, D-95100 Selb, Germany) equipped with a low temperature furnace. The purge gas used was helium (gas flow=60 mL/min) and the reference material was an empty aluminum pan without cap. The samples were weighed in open aluminum pans, then placed in the analyzer. The analyses were performed within various temperature ranges using a 2°.min^−1 heating rate. PROTEUS software was used for the acquisition and data processing (v. 4.7.0).
# [3] = DVS hygroscopicity and moisture measurement, first procedure; format: physicochemical
# Protocol: Moisture sorption isotherms of amorphous BrHPP was obtained by using an automated water sorption analyzer. Temperature of analysis was 20° C. For each measurement, precisely ca. 25 mg of the sample were weighed in a pan beforehand allowed for the tare, then placed in the analyzer.
# After a stabilization stage at 0% R.H. (R.H. stands for Relative Humidity), mass variations were recorded while R.H. was increased by steps of 20% R.H. The upper limit was adjusted to 80% R.H. This second stage was afterward followed by a stepped decrease of R.H. down to 0% R.H. This overall procedure constitutes a ‘Full cycle’ analysis. Several successive full cycles can be applied to the same sample.
# [4] = DVS hygroscopicity and moisture measurement, second procedure; format: physicochemical; details: 22° C.
# Protocol: Moisture sorption isotherms of the crystalline phases were obtained by using a DVS-1 automated water sorption analyzer (Surface Measurements Systems, Alperton, Middlesex, United Kingdom). The reference material was an empty glass pan and the total gas flow was 200 sccm·min^−1 (Standard Cubic Centimeters per minute). Temperature of analysis was 22° C. For each measurement, precisely ca. 15 mg of the sample were weighed in a glass pan beforehand allowed for the tare, then placed in the analyzer.
# As a first stage, dry nitrogen (0% R.H) was applied until constant weight of the sample in order to eliminate adsorbed or absorbed water (potential dehydration). Then, mass variations were recorded while R.H. was increased by steps of 10% R.H. The automated analyzer was allowed to start the following step as soon as the mass variation of the sample was less than 5.10^−4 mg·min^−1. The upper limit was adjusted below the deliquescence of the compound and never exceeded 98% R.H. This second stage was afterward followed by a stepped decrease of R.H. down to 0% R.H. This overall procedure constitutes a ‘Full cycle’ analysis. Several successive full cycles can be applied to the same sample.
# DVSWin (v 2.18) was used as control and data collection software whereas data processing was performed by using DVS Standard Analysis Suite (v 4.3).
# Further parameters used in DVS procedures are as follows: • Protocole Dynamic Vapour Sorption/Appareil ‘Surface Measurements Systems • Automated Water Sorption Analyser’/model: DVS-1 • Analysis method: • step mode, • Temperature: […] • number of steps, • step dm/dt<0.0005 (mg/min) • First stage R.H.=0% • Last Stage R.H.=98% • Half cycle or Full cycle (or several successive full cycles) • dm/dt window: 5 • Minimum Stage: 20 min • Maximum Stage: 120 min • Total Gaz Flow: 200 • Nitrogen: 200 Bars, H2O<3 ppm, O2<2 ppm, Ref. Azote N50 B50*0 • Initial sample weight: • Software—data collection and data processing • DVSWin v2.18 (control software), • DVS Standard Analysis Suite v4.3 (analysis software).]
structure (smiles),measurement,setting,value
"CC(O)(CBr)CCOP(=O)(O)OP(=O)(O)O (stereo not shown) [3-(bromomethyl)-3-butanol-1-yl diphosphoric acid, diquininium salts]",anionic purity of the sample over the storage period,"[1]; glass vial, room temperature (20-25° C.), ambient atmosphere (50-70% RH), at least 5 months, HPAEC",99.5%±0.2%
same,period over which the compound was found to be stable,[1]; stored in a glass vial at room temperature (20-25° C.) and ambient atmosphere (50-70% Relative Humidity),at least 5 months
"CC(O)(CBr)CCOP(=O)(O)OP(=O)(O)O (racemic) [BrHPP sodium salt, reference compound]",degradation on storage,"[1]; 3 months, room temperature (about 25° C.), in contact with ambient atmosphere",50%
same,thermal behaviour in TG/DSC analysis,"[2]; fluctuations of DSC signal and continuous mass loss, even for temperatures close to ambient",undergoes chemical degradations
same,sensitivity to atmospheric water,[3]; even for low R.H.,very sensitive to atmospheric water
same,deliquescence,"[3]; high relative humidities (≧80% R.H.), 20° C., mass not stabilized after 2300 minutes",becomes deliquescent
"CC(O)(CBr)CCOP(=O)(O)OP(=O)(O)O (racemic) [BrHPP benzathin salt (Rac)-Mix-I, 3-(bromomethyl)-3-butanol-1-yl diphosphoric acid, N,N′-dibenzylethylenediammonium salts]","reversible and reproducible mass variation, (de)hydration (Rac)-Mix-I / (Rac)-Mix-III",[4]; R.H. in the range of 50%-70%,6.1%
same,cumulated mass variations,[4]; between 0% and 50% R.H.,< 0.4%
same,cumulated mass variations,[4]; high relative humidity (up to 90%),< 0.2%
same,temperature of the fusion-degradation event (thermal stability),"[2]; DSC, non solvated crystalline form",above 146 °C
